Assay results reported in patent US9611272B2, “Polymorphic forms of icotinib and uses thereof” (BETTA PHARMACEUTICALS CO., LTD, priority 2013, dated 2017).
Structures can show the parent of a compound that is named as a salt. Where two headings read alike, the source gives them in different places.

Test: Pharmacokinetic study of Icotinib hydrochloride and Polymorph Form II of Icotinib, oral suspension, plasma by HPLC
Format: in vivo
Details: fasted male SD rats, oral suspension in sodium carboxymethyl cellulose, dose equivalent to 50 mg/kg Icotinib
Excerpt: Pharmacokinetic Study of Icotinib Hydrochloride and the Polymorph Form II of Icotinib
Drugs and reagents: the Icotinib hydrochloride used in this study was of Crystalline Form I disclosed by the WO2010/003313. Polymorph Form II of Icotinib and Icotinib hydrochloride were ground to fine particles. The material content (purity) was not less than 99.0%. Sodium carboxymethyl cellulose was medical supply graded.
Experimental animals: SD rats were divided to the Icotinib hydrochloride group and a Polymorph Form II group.
Pharmaceutical preparation: the amount of each compound was weighed and then sodium carboxymethyl cellulose was added to result in the test compound's concentration of 0.5%. The solid mixture was then added to prepare a suspension thereof at a final concentration of […] in water.
Administration and sample collection: each suspension was administered orally to fasted SD rats at a dose equivalent to 50 mg/kg Icotinib in a dose volume of 5 ml/kg. 0.4 ml of blood was collected in EDTA-K pre anticoagulant tubes at time intervals of 0.5, 1, 1.5, 2, 4, 6, 8 and 24 hours after the administration of the test compound, centrifuged at 3000 rpm for 10 minutes, and 120 μl plasma was collected and kept in cold storage.
Samples were analyzed by high performance liquid chromatography. The chromatographic conditions utilized C18-silane bonded silica as stationary phase, 0.02 mol/L of sodium dihydrogen phosphate in acetonitrile (40:60, using sodium hydroxide solution to adjust pH to 5.0) as the mobile phase and a detection wavelength of 334 nm.

Tmax (hydrochloride) [h] | AUC(0-inf) (male, SD, rat, po, 50 mg/kg) [ng·h/mL] | half-life (male, SD, rat, po, 50 mg/kg) [h] | AUC(0-t) (male, SD, rat, po, 50 mg/kg, read-out: AUC(0-24)) [ng·h/mL] | Cmax (male, SD, rat, po, 50 mg/kg, read-out: Cmax) [ng/mL] | AUC(0-24) [ng·h/mL] | AUC(0-∞) [ng·h/mL] | Cmax [ng/mL] | T1/2 [h] | Tmax [h] | SMILES
1.3 ± 1.1 | 39800 ± 28500 | 3.1 ± 1.4 | 39200 ± 27600 | 4900 ± 2600 |  |  |  |  |  | C#Cc1cccc(Nc2ncnc3cc4c(cc23)OCCOCCOCCO4)c1 [Icotinib hydrochloride]
 |  |  |  |  | 62400 ± 30100 | 63000 ± 30000 | 5800 ± 2600 | 3.5 ± 0.6 | 4.5 ± 2.6 | C#Cc1cccc(Nc2ncnc3cc4c(cc23)OCCOCCOCCO4)c1 [Polymorph Form II of Icotinib, Icotinib]
